Data on 15 compounds can be found in article PMC7926980, “The Antiproliferative and Apoptotic Effect of a Novel Synthesized S-Triazine Dipeptide Series, and Toxicity Screening in Zebrafish Embryos” (Molecules, 2021).

One data set relates to MCF-7 cells. The experiment in a line: MTT cell viability assay, MCF-7. Type of data set: cell-based, human. The following applies: Homo sapiens, MCF7, 72 h, 72 h treatment. As for the experimental part: (§1) The antiproliferative activity of the synthesized compounds was evaluated by the 3-(4,5-dimethylthiazol-2-yl)-2,5-diphenyl tetrazolium bromide (MTT) cell viability assay. Two types of breast cancer cell lines—namely MCF-7, which has estrogen and progesterone receptors, and MDA-MB-231, which is triple negative—were used, in addition to a colon cancer cell line (HCT-116).
(§2) The target products 3a–o were evaluated for their antiproliferative activity using the MTT viability assay of the MCF-7, MDA-MB-231 and HCT-116 cell lines (in triplicate) on at least three independent occasions for the determination of the reported mean values.
(§3) The three human tumor cell lines MCF-7, MDA-MB-231 and HCT-116 were cultured in Dulbecco’s Modified Eagle’s Medium (DMEM) with 10% fetal bovine serum, 2 mM L-glutamine and 100 µg/mL penicillin/streptomycin. The cells were maintained at 37 °C in 5% CO2 in a humidified incubator. All of the cells were sub-cultured 3 times/week by trypsinization using TrypLE Express (1×).
(§4) In order to calculate the relative IC50 values, the antiproliferative effect of compounds 3a–o was tested in three cancer cell lines (MCF-7, MDA-MB-231, HCT-116) and normal epithelial embryonic kidney cells (HEK-293) using the MTT viability assay. The cells were seeded in 96-well plates at a density of 10 × 10^3 cells/mL, in a total volume of 200 µL per well. In total, 0.1% DMSO was used as a vehicle control. […] The culture medium was then removed, and the cells were washed with phosphate-buffered saline (PBS), and 100 µL MTT was added (for a final concentration of 5 mg/mL MTT). The cells were incubated for 4 h in darkness at 37 °C. Next, 200 µL DMSO was added to each well, and the cells were maintained at room temperature in darkness for 20 min. The absorbance was detected with a microplate reader at 570 nm. The results were expressed as a percentage of viability relative to the vehicle control (100%). The dose-response curves were plotted, and the IC50 values were obtained using Prism software (GraphPad Software, Inc., La Jolla, CA, USA). All of the experiments were repeated in three independent experiments.
On the technique in general: Tetrazolium assays rely on reduction of a dye to a coloured formazan, in cell work by metabolically active cells.

In another data set the test system is HCT-116 cells. Kind of data set: MTT cell viability assay, HCT-116. Type of data set: cell-based. The following applies: Homo sapiens, 72 h treatment. As to the method: as §1, §2, §3, §4
For the next data set, the system named is MDA-MB-231 cells. Kind of data set: MTT cell viability assay, MDA-MB-231. Type of data set: cell-based. To be noted: Homo sapiens, 72 h treatment. As to the method: as §1, §2, §3, §4
Data set [1] is described as follows: Zebrafish embryo mortality/toxicity. Format: in vivo. To be noted: wild-type, in vivo; zebrafish embryos, overnight exposure, 0.5 to 1000 µM; mean of three biological replicates ± standard deviation. As to the method:
(§5) The zebrafish embryos were obtained by natural pairwise breeding, and were treated essentially as described previously.
(§6) The compounds were dissolved in dimethylsulfoxide (DMSO) in order to prepare a stock concentration of 10 mM. The embryos treated with 0.10% DMSO (v/v) served as the negative controls.
(§7) The fish were kept following the national and international guidelines for the care and use of laboratory animals. The fertilized eggs were obtained by the natural pairwise breeding of adult fish. The approval of the Ethics Committee for the use and care of laboratory animals was not needed, as zebrafish larvae less than 5 days post fertilization were used.
(§8) A stock solution of 50 mM was prepared by dissolving the compounds in dimethyl sulfoxide (DMSO). At least 30 fertilized eggs were sorted and placed in 60-mm sterile glass Petri dishes. A serial dilution of the compounds was prepared by adding the required amount of the compound directly into 5 mL water, and the zebrafish embryos were then exposed to serial dilutions (0.5 to 1000 µM) of each compound overnight. The number of dead and living embryos were counted after the overnight exposure.

Data set [2] relates to zebrafish embryos. Kind of data set: Zebrafish embryo imaging (morphology, teratogenicity). Format: in vivo. To be noted: 10 µM, embryos at 48 hpf. The text has this:
The treated embryos had cardiac edema, craniofacial defects, tail lesions, and a delay in embryonic development. These observations are consistent with the findings in the literature.
A Zeiss Observer D1 inverted microscope using Zeiss ZEN software was used to capture the images of the live zebrafish embryos.
Figure 6 Representative images of the zebrafish embryos 48 hpf (A) control or (B) treated.

For data set [3], the system named is zebrafish embryos. The experiment in a line: Zebrafish embryo mortality/toxicity. Type of data set: in vivo. To be noted: maximum concentration tested 1 mM, versus DMSO control. As for the experimental part:
as §5, §6, §7, §8

Where only a bound is given, the exact number is not on record here.

For `COC(=O)C(C)NC(=O)CNc1nc(Nc2ccc(Cl)cc2)nc(N2CCOCC2)n1` (stereo not drawn) [Compound 3e, Methyl (4-((4-chlorophenyl)amino)-6-morpholino-1,3,5-triazin-2-yl) glycylalaninate], the values for the IC50 with MCF-7 cells, in the data set with HCT-116 cells and in the data set on MDA-MB-231 cells were 4.35 ± 2.86 µM, above 50 µM and 8.2 ± 1.68 µM, respectively. The compound further gave an LC50 in data set [1] of 2.37 ± 0.27 µM.

Take `CC/C(=C(\c1ccccc1)c1ccc(OCCN(C)C)cc1)c1ccccc1` [Tamoxifen, reference compound]: the “teratogenic effect in zebrafish embryos” value in the data set on zebrafish embryos [2] is “severe teratogenic effect”.

As to `COC(=O)CNC(=O)CNc1nc(Nc2ccccc2)nc(N2CCCCC2)n1` [Compound 3h, Methyl (4-(phenylamino)-6-(piperidin-1-yl)-1,3,5-triazin-2-yl) glycylglycinate], the results for the concentration for half-maximal inhibition (IC50) in the data set with MCF-7 cells, in the data set with HCT-116 cells and in the data set on MDA-MB-231 cells were 19.64 ± 0.08 µM, 15.2 ± 2.04 µM and above 50 µM, respectively. For the same compound, the LC50 in data set [1] was determined as 10.1 ± 0.43 µM.

As to `COC(=O)CNC(=O)CNc1nc(Nc2ccc(Cl)cc2)nc(N2CCOCC2)n1` [Compound 3b, Methyl (4-((4-chlorophenyl)amino)-6-morpholino-1,3,5-triazin-2-yl) glycylglycinate], the results for the IC50 in the data set with MCF-7 cells, with HCT-116 cells and with MDA-MB-231 cells were 6.18 ± 0.46 µM, above 50 µM and above 50 µM, respectively. The LC50 in data set [1] was above 1000 µM. In addition, the “toxicity / mortality in zebrafish embryos” value (shortened to “toxicity / mortality”) in the data set with zebrafish embryos [3] is on record as “did not show any toxicity”.

For the compound `COC(=O)C(C)NC(=O)CNc1nc(Nc2ccc(Cl)cc2)nc(N2CCCCC2)n1` (stereo not drawn) [Compound 3l, Methyl (4-((4-chlorophenyl)amino)-6-(piperidin-1-yl)-1,3,5-triazin-2-yl) glycylalaninate], the IC50 with MCF-7 cells worked out at 1.46 ± 0.69 µM; with HCT-116 cells it was 7.06 ± 0.27 µM; with MDA-MB-231 cells, 8.31 ± 0.69 µM. Moreover, the LC50 in data set [1] was determined as 4.25 ± 0.38 µM.

As to `COC(=O)C(NC(=O)CCNc1nc(Nc2ccc(Cl)cc2)nc(N2CCOCC2)n1)C(C)C` (stereo not drawn) [Compound 3n, Methyl (3-((4-((4-chlorophenyl)amino)-6-morpholino-1,3,5-triazin-2-yl)amino)propanoyl) valinate], the IC50 with MCF-7 cells amounted to 2.35 ± 1.06 µM; in the data set with HCT-116 cells, 14.4 ± 1.37 µM; in the data set with MDA-MB-231 cells, 8.48 ± 1.71 µM. The compound also registered an LC50 in data set [1] of 5.84 ± 1.09 µM.

For `COC(=O)CNC(=O)CNc1nc(Nc2ccc(OC)cc2)nc(N2CCCCC2)n1` [Compound 3j, Methyl (4-((4-methoxyphenyl)amino)-6-(piperidin-1-yl)-1,3,5-triazin-2-yl) glycylglycinate], the IC50 was 25.3 ± 2.75 µM in the data set with MCF-7 cells, 23.4 ± 3.43 µM in the data set on HCT-116 cells and above 50 µM with MDA-MB-231 cells. Further, in data set [1], the 50% lethal concentration (LC50) is 80.15 ± 0.59 µM.

`COC(=O)C(C)NC(=O)CNc1nc(Nc2ccccc2)nc(N2CCCCC2)n1` (stereo not drawn) [Compound 3k, Methyl (4-(phenylamino)-6-(piperidin-1-yl)-1,3,5-triazin-2-yl) glycylalaninate]: the values for the IC50 in the data set on MCF-7 cells, with HCT-116 cells and with MDA-MB-231 cells were 15.3 ± 2.49 µM, above 50 µM and 13.3 ± 1.12 µM, respectively. In data set [1], this compound showed an LC50 of 5.98 ± 0.53 µM.

For `COC(=O)C(C)NC(=O)CNc1nc(Nc2ccc(OC)cc2)nc(N2CCOCC2)n1` (stereo not drawn) [Compound 3f, Methyl (4-((4-methoxyphenyl)amino)-6-morpholino-1,3,5-triazin-2-yl) glycylalaninate], the IC50 in the data set on MCF-7 cells is 8.02 ± 0.5 µM; in the data set with HCT-116 cells, above 50 µM; with MDA-MB-231 cells it was 28.1 ± 1.07 µM. The compound also gave an LC50 in data set [1] of 28.4 ± 1.18 µM.

Consider `COC(=O)C(C)NC(=O)CNc1nc(Nc2ccccc2)nc(N2CCOCC2)n1` (stereo not drawn) [Compound 3d, Methyl (4-morpholino-6-(phenylamino)-1,3,5-triazin-2-yl) glycylalaninate], for which the IC50 was 3.57 ± 0.81 µM with MCF-7 cells, above 50 µM with HCT-116 cells and 16.2 ± 0.63 µM in the data set on MDA-MB-231 cells. The median lethal concentration (LC50) in data set [1] is above 1000 µM. The “toxicity / mortality” value in the data set with zebrafish embryos [3] was “did not show any toxicity”.

For the compound `COC(=O)CNC(=O)CNc1nc(Nc2ccc(Cl)cc2)nc(N2CCCCC2)n1` [Compound 3i, Methyl (4-((4-chlorophenyl)amino)-6-(piperidin-1-yl)-1,3,5-triazin-2-yl) glycylglycinate], the IC50 in the data set with MCF-7 cells came to 8.37 ± 0.77 µM; with HCT-116 cells it was 18.5 ± 1.45 µM; in the data set with MDA-MB-231 cells, 22.3 ± 1.87 µM. This compound also displayed an LC50 in data set [1] of 6.22 ± 0.39 µM.

In the case of `COC(=O)C(NC(=O)CNc1nc(Nc2ccc(Cl)cc2)nc(N2CCOCC2)n1)C(C)C` (stereo not drawn) [Compound 3g, Methyl (4-((4-chlorophenyl)amino)-6-morpholino-1,3,5-triazin-2-yl) glycylvalinate], the results for the IC50 in the data set with MCF-7 cells, in the data set on HCT-116 cells and in the data set with MDA-MB-231 cells were 13.2 ± 0.6 µM, 12.2 ± 1.74 µM and 24.1 ± 2.61 µM, respectively. Also, in data set [1], the LC50 was determined as 132.1 ± 0.86 µM.

In the case of `COC(=O)CNC(=O)CCNc1nc(Nc2ccc(Cl)cc2)nc(N2CCOCC2)n1` [Compound 3m, Methyl (3-((4-((4-chlorophenyl)amino)-6-morpholino-1,3,5-triazin-2-yl)amino)propanoyl) glycinate], the values for the IC50 in the data set on MCF-7 cells, in the data set on HCT-116 cells and in the data set with MDA-MB-231 cells were 19.7 ± 1.48 µM, above 50 µM and 26.7 ± 1.32 µM, respectively. Moreover, the 50% lethal concentration (LC50) in data set [1] is 5.58 ± 0.95 µM.

For the compound `COC(=O)C(NC(=O)CCNc1nc(Nc2ccc(Cl)cc2)nc(N2CCCCC2)n1)C(C)C` (stereo not drawn) [Compound 3o, Methyl (3-((4-((4-chlorophenyl)amino)-6-(piperidin-1-yl)-1,3,5-triazin-2-yl)amino)propanoyl) valinate], the figures for the IC50 with MCF-7 cells, in the data set on HCT-116 cells and with MDA-MB-231 cells were 4.64 ± 1.58 µM, 18.9 ± 2.82 µM and 15.7 ± 2.21 µM, respectively. The compound further displayed an LC50 in data set [1] of 1.97 ± 0.27 µM.

As to `COC(=O)CNC(=O)CNc1nc(Nc2ccc(OC)cc2)nc(N2CCOCC2)n1` [Compound 3c, Methyl (4-((4-methoxyphenyl)amino)-6-morpholino-1,3,5-triazin-2-yl) glycylglycinate], the IC50 was 13.5 ± 1.01 µM in the data set with MCF-7 cells, above 50 µM in the data set on HCT-116 cells and above 50 µM in the data set on MDA-MB-231 cells. Further, in data set [1], the LC50 is above 1000 µM. Moreover, in the data set on zebrafish embryos [3], the “toxicity / mortality” value is on record as “did not show any toxicity”.

A word on the IC50: it is the concentration at which inhibition is half-maximal. A high value points to weaker potency in that assay. For orientation: LC50 means the concentration that kills 50% of the test population. Lower therefore signals a more lethal substance.
